Assay: Heat exposure of muscimol during distillation
Type: physicochemical
Settings: after being exposed to heat for 3 hours (distillation)
Procedure: In one example, distillation is performed for about 0.5 hours to about 6 hours. In some embodiments, distillation is performed for about 5 to about 6 hours. In another example, it is performed for about 2 to about 3 hours. In another example, it is performed for about 3 hours. […] However, in some embodiments, further distillation beyond 3 hours, such as 4 hours, 5 hours, 6 hours, or more than 6 hours, may be advantageous. In some embodiments, the resulting muscimol extract is a liquid.
The refluxed extract was then distilled for a period of 3 hours. Samples were taken prior to distillation, after 1 hour, 2 hours, and at 3 hours of distillation, as discussed further below. After distillation, the filtrate was cooled to 3° C. in a refrigerator. After about 3 hours of cooling, there was coagulated material suspended in the filtrate. The coagulated material in the filtrate was removed via vacuum filtration through the vacuum filtration setup described above (without the cheesecloth). After filtration, the filter setup was rinsed under vacuum with 30 mL of distilled water into the filtrate.

Q: Which stability to heat does the source give for `NCc1cc(=O)[nH]o1` [muscimol, 5-(Aminomethyl)-1,2-oxazol-3(2H)-one] here?
A: begins degrading (to a very minimal degree)

Reference: patent publication US20240165180A1, “Processes for Extracting Muscimol from Amanita Muscaria” (priority 2021, published 2024)
